In patent US8952073B2, “Estrogenic compounds, process for their production and pharmaceutical uses thereof” (The University of Ottawa, priority 2008, dated 2015):
“And” between values parts separate entries of the source, which are not always exact repeats. Equal values may be shown once. Read-outs that look alike come from different tables or passages of the source. Each block holds one compound with its values, some of them ahead of it.

What was measured:
[1] = molecular target: T1, ERα (Homo sapiens, UniProt P03372); experiment: Relative binding affinity (RBA), radiolabel competition assay, estrogen alpha receptor; settings: for RBAα: estradiol=100; for RBA for ERα: relative to estradiol (set at 100%)
T1 sequence (P03372 1-595): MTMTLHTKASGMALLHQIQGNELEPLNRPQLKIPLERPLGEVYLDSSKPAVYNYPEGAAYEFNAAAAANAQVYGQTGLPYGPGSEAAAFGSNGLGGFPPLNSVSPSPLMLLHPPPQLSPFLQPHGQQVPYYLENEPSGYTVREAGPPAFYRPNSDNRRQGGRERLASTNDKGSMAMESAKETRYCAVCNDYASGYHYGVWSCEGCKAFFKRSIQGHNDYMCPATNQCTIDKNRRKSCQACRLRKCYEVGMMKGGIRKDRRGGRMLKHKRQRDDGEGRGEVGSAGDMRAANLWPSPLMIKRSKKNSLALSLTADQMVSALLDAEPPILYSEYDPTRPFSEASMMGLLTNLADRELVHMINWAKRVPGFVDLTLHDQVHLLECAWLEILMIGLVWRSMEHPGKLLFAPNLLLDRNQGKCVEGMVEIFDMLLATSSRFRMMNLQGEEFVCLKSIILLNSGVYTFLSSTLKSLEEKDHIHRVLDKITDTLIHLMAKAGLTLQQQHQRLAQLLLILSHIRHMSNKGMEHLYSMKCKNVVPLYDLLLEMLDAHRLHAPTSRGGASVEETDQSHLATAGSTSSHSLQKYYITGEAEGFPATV

[2] = molecular target: T1, ERα; experiment: Relative transcription assay (RTA), estrogen response element driven luciferase, estrogen alpha receptor; format: cell-based; settings: for RTAα: relative transcription activity, estradiol=100
[3] = molecular target: T2, ERβ (Homo sapiens, UniProt Q92731); experiment: Relative transcription assay (RTA), estrogen response element driven luciferase, estrogen beta receptor; format: cell-based; settings: for RTAβ: relative transcription activity, estradiol=100; for hormonal potency / transcriptional activation at ERβ, in words: result in words
[4] = molecular target: T2, ERβ; experiment: Relative binding affinity (RBA), radiolabel competition assay, estrogen beta receptor; settings: for RBAβ: estradiol=100; for RBA for ERβ: relative to estradiol (set at 100%)
[5] = in vitro
[6] = system: intact hepatocytes; settings: read-out: LC50, 2 hour exposure
[7] = system: ERβ vs. ERα; settings: literature values; cited from earlier work
[8] = ring C saturated compounds, natural stereochemistry at C9
[9] = double bond in ring C (C9-C11 or C9-C8), tested as mixtures except entries 16, 17, 19, 20, 25, 26
[10] = double bond in ring C, mixtures except entries 16, 17, 19, 20, 25, 26
[11] = 9-hydroxy compounds, natural stereochemistry at C9

T2 sequence (Q92731 whole entry): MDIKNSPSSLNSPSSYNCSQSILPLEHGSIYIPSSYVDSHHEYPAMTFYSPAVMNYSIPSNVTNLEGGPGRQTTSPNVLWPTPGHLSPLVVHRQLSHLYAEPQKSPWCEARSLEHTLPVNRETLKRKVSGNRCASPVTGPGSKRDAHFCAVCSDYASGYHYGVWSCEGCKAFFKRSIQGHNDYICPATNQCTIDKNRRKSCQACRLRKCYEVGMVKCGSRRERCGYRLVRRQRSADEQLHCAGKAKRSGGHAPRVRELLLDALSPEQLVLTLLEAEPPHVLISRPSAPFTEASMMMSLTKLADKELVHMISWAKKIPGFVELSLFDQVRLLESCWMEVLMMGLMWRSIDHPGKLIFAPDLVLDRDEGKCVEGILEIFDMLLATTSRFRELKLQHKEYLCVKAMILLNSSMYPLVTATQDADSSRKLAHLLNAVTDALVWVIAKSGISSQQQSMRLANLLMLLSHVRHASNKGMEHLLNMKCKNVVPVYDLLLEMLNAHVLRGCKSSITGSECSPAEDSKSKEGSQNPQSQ

SMILES: C[C@]12CC[C@H](c3ccc(O)cc3Cl)CC1CC[C@@H]2O (stereo partly drawn) [Entry 8]
RBAα [1, 8]: 55.3
RTAα [2]: 88
RTAβ [3]: 188

RBAα [1, 9]: 0.32
RBAβ/RBAα [4, 10]: 2.2
RBAβ [4, 9]: 0.76
SMILES: C[C@]12CC=C(c3ccc(O)cc3CCSCc3ccccc3)CC1CC[C@@H]2O (stereo partly drawn) [Entry 25]

RBAα [1, 9]: 0.44
RBAβ/RBAα [4, 10]: 5.1
RBAβ [4, 9]: 2.6
SMILES: C[C@]12CC=C(c3cc(F)c(O)cc3F)CC1CC[C@@H]2O (stereo partly drawn) [Entry 16]

RBAα [1, 11]: 0.005
RBAβ/RBAα [4, 11]: 4.6
RBAβ [4, 11]: 0.023
SMILES: C[C@]12CC[C@](O)(c3cc(F)c(O)c(F)c3)CC1CC[C@@H]2O (stereo partly drawn) [Entry 30]

RBAα [1, 11]: 0.17
decrease in binding affinity ([4]; 9-hydroxy compound compared to the saturated analog): 37 fold
RBAβ/RBAα [4, 11]: 21
RBAβ [4, 11]: 3.6
SMILES: C[C@]12CC[C@](O)(c3ccc(O)cc3F)CC1CC[C@@H]2O (stereo partly drawn) [Entry 29]

SMILES: C[C@]12CC[C@H](c3ccc(O)cc3F)CC1CC[C@@H]2O (stereo partly drawn) [Entry 3]
RBAα [1, 8]: 27.3
RBAβ [4, 8]: 135.5
RBA for the ERβ receptor compared with estradiol, in words ([4]; result in words): exceeded that of estradiol itself
RBAβ/RBAα [4, 8]: 5.0
RTAα [2]: 44
transcriptional activation at ERα, in words ([2]; result in words): both an ERα and an ERβ agonist
Ratio RTAβ/RTAα [3]: 3.6
RTAβ [3]: 162
hormonal potency / transcriptional activation at ERβ, in words [3]: both an ERα and an ERβ agonist
CC50 at 2 h ([5]; intact hepatocytes): 250 to 280 µM

RBAα [1, 11]: 0.01
RBAβ/RBAα [4, 11]: 10
RBAβ [4, 11]: 0.1
SMILES: C[C@]12CC[C@](O)(c3ccc(O)cc3)CC1CC[C@@H]2O (stereo partly drawn) [Entry 27]

SMILES: C[C@]12CCC(c3ccc(O)cc3Cl)=CC1CC[C@@H]2O (stereo partly drawn) [Entry 20]
RBAα [1, 9]: 195
RBAβ/RBAα [4, 10]: 1.7
RBAβ [4, 9]: 331
RTAα [2]: 98
Ratio RTAβ/RTAα [3]: 2.1
RTAβ [3]: 188

RBAα [1, 8]: 0.4
RBAβ [4, 8]: 0.28
RBAβ/RBAα [4, 8]: 7.0
SMILES: C[C@]12CC[C@H](c3cc(F)c(O)c(F)c3)CC1CC[C@@H]2O (stereo partly drawn) [Entry 4]

SMILES: C[C@]12CCC(c3ccc(O)cc3CCSCc3ccccc3)=CC1CC[C@@H]2O (stereo partly drawn) [Entry 26]
RBAα [1, 9]: 0.31
RBAβ/RBAα [4, 10]: 0.86
RBAβ [4, 9]: 0.27
RTAα [2]: 6.7
Ratio RTAβ/RTAα [3]: 2.2
RTAβ [3]: 15.6

SMILES: C[C@]12CC[C@H](c3ccc(O)c(F)c3F)CC1CC[C@@H]2O (stereo partly drawn) [Entry 5]
RBAα [1, 8]: 4.6
RBAβ [4, 8]: 42.8
RBAβ/RBAα [4, 8]: 9.3
RTAα [2]: 18
Ratio RTAβ/RTAα [3]: 8.4
RTAβ [3]: 151
CC50 at 2 h ([5]; intact hepatocytes): 155 to 200 µM

SMILES: C[C@]12CC[C@H](c3ccc(O)cc3)CC1CC[C@@H]2O (stereo partly drawn) [Entry 1]
RBAα [1, 8]: 1.5
RBA for ERα [1]: 1.7% and 1.5%
selective binding, favouring ERβ by a factor ([4]; ERβ over ERα): 15
RBAβ [4, 8]: 21.5
RBA for ERβ [4]: 21.5%
RBAβ/RBAα [4, 8]: 14.6
RTAα [2]: 4.3
RTAα ([2]; listed as 1*): −8.9
Ratio RTAβ/RTAα [3]: 38
RTAβ [3]: 164
RTAβ ([3]; listed as 1*): 7.7
CC50 at 2 h ([5]; intact hepatocytes): 320 to 400 µM

SMILES: C[C@]12CC[C@H](c3cc(F)c(O)c(F)c3F)CC1CC[C@@H]2O (stereo partly drawn) [Entry 7]
RBAα [1, 8]: 0.19
RBAβ [4, 8]: 1.73
further reduction in binding, factor ([4]; in comparison with entry 3): about 10
RBAβ/RBAα [4, 8]: 9.1
RTAα [2]: 11
Ratio RTAβ/RTAα [3]: 4.8
RTAβ [3]: 53
CC50 [6]: > 600 µM
CC50 at 2 h ([5]; intact hepatocytes): > 600 µM

RBAα [1, 11]: 0.009
RBAβ/RBAα [4, 11]: 13
RBAβ [4, 11]: 0.12
SMILES: C[C@]12CC[C@](O)(c3ccc(O)c(F)c3)CC1CC[C@@H]2O (stereo partly drawn) [Entry 28]

SMILES: N#Cc1cc(-c2ccc(O)c(F)c2)cc2ccc(O)cc12 [WAY 202196]
binding affinity ERβ/ERα ratio [7]: 78

SMILES: C[C@]12CC[C@H](c3ccc(O)c(F)c3)CC1CC[C@@H]2O (stereo partly drawn) [Entry 2]
RBAα [1, 8]: 1.0
RBA for ERα [1]: 1.0%
RBAβ [4, 8]: 8.7
RBA for ERβ [4]: 8%
RBAβ/RBAα [4, 8]: 8.7
RTAα [2]: −8.3
RTAβ [3]: 14
hormonal potency / transcriptional activation at ERβ, in words [3]: weak agonist for ERβ
CC50 at 2 h ([5]; intact hepatocytes): 400 to 450 µM

RBAα [1, 9]: 0.38
RBAβ/RBAα [4, 10]: 6.8
RBAβ [4, 9]: 3.3
SMILES: C[C@]12CCC(c3cc(F)c(O)cc3F)=CC1CC[C@@H]2O (stereo partly drawn) [Entry 17]

SMILES: C=Cc1cc(O)cc2nc(-c3ccc(O)c(F)c3)oc12 [ERB-041]
binding affinity ERβ/ERα ratio [7]: 226

RTAβ [3]: 100
SMILES: C[C@]12CC[C@@H]3c4ccc(O)cc4CC[C@H]3[C@@H]1CC[C@@H]2O [Estradiol, 17β-estradiol, reference compound]
CC50 at 2 h [5]: 400 to 450 µM

SMILES: C[C@]12CC=C(c3ccc(O)cc3Cl)CC1CC[C@@H]2O (stereo partly drawn) [Entry 19]
RBAα [1, 9]: 60
RBAβ/RBAα [4, 10]: 2.0
RBAβ [4, 9]: 118
RTAα [2]: 120
Ratio RTAβ/RTAα [3]: 1.6
RTAβ [3]: 157

SMILES: Cc1cc(O)ccc1[C@H]1CC[C@@]2(C)C(CC[C@@H]2O)C1 (stereo partly drawn) [Entry 9]
RBAα [1, 8]: 2.8
RBAβ [4, 8]: 33.6
RBAβ/RBAα [4, 8]: 11.9
RTAα [2]: −9.7
RTAβ [3]: 149
